Like-named read-outs stand apart in the source and are kept apart here.
What was measured:
M4 muscarinic receptor = target: T1, M4 muscarinic receptor (Homo sapiens, UniProt P08173); experiment: Functional mobilization of intracellular calcium (FLIPR, Fluo-3), M4-CHO cells; type: cell-based; settings: for Emax: 100% efficacy is the maximum response obtained with the Carbachol control, read-out: M4 Efficacy
T1 construct: expressed in transfected cells; host or cells: CHO cells (M4-CHO, under puromycin, zeocin and blasticidin selection)
T1 sequence (P08173 1-479): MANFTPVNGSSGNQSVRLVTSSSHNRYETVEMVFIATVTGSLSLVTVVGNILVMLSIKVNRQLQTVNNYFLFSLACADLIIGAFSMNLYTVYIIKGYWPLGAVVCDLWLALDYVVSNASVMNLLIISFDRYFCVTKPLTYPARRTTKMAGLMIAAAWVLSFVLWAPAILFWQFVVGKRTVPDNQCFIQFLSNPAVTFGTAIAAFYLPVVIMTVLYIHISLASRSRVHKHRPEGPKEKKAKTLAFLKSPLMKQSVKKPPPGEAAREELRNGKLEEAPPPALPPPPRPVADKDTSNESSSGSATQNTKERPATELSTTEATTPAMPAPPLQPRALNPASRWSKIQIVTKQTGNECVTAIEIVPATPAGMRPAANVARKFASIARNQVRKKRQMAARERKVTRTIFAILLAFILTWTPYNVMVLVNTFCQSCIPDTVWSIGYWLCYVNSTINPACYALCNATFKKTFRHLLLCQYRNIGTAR
Procedure, shortened: (§1)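 Intracellular calcium was tracked by fluorescence (488/540 nm) over 60 sec after compound addition to dye-loaded CHO cells expressing the receptor. Inhibitory activity used a 15 min pre-incubation before carbachol at the subtype EC80.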

M1 muscarinic receptor = target: T2, M1 muscarinic receptor (Homo sapiens, UniProt P11229); experiment: Functional mobilization of intracellular calcium (FLIPR, Fluo-3), M1-CHO cells; type: cell-based; settings: for Emax: 100% efficacy is the maximum response obtained with the Carbachol control, read-out: M1 Efficacy
T2 construct: expressed in transfected cells; host or cells: CHO cells (M1-CHO, under zeocin and G418 selection)
T2 sequence (P11229 1-460): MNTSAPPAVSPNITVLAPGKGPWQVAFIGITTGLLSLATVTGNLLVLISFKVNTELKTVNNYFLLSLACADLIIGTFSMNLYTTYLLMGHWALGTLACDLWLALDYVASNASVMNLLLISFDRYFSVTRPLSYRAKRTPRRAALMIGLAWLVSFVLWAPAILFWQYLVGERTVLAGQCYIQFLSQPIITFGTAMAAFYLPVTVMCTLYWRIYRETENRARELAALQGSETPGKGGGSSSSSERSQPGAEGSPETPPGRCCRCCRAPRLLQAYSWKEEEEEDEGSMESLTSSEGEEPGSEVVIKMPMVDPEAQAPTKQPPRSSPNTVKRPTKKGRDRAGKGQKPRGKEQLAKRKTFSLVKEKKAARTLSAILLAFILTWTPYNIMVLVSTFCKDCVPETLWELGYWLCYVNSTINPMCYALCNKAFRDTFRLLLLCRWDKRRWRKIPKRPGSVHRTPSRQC
Procedure, shortened: as §1

[1] = compound nos. 1-454, M4-CHO cells, calcium mobilization
[2] = compound nos. 1-454, M1-CHO cells, calcium mobilization

CC(=O)N1CC2(CCN(C3CCN(C(=O)OC4CCC4)CC3)CC2)c2cc(C)ccc21 [compound 151]
Emax (M4 muscarinic receptor; compound nos. 1-454): > 70% | M4 Activity (M4 muscarinic receptor; [1]): +++ (activity was measured to be less than or equal to 0.1 μM) | Emax (M1 muscarinic receptor; compound nos. 1-454): > 85% | M1 Activity (M1 muscarinic receptor; [2]): +++ (activity was measured to be less than or equal to 0.7 μM)

CC(C)OC(=O)N1C2CCC1CC(N1CCC3(CC1)CN(C(=O)O[C@@H]1CCOC1)c1ccc(F)cc13)C2 (some centres unmarked) [compound 361]
Emax (M4 muscarinic receptor; compound nos. 1-454): < 55% | M4 Activity (M4 muscarinic receptor; [1]): + (activity was measured to be greater than or equal to 4.0 μM) | Emax (M1 muscarinic receptor; compound nos. 1-454): < 65% | M1 Activity (M1 muscarinic receptor; [2]): ++ (activity was measured to be between 0.7 μM and 3.0 μM)

CC(C)OC(=O)N1C2CCC1CC(N1CCC3(CC1)CN(C(=O)N(C)C)c1ccc(F)cc13)C2 (centres unmarked) [compound 108]
Emax (M4 muscarinic receptor; compound nos. 1-454): < 55% | M4 Activity (M4 muscarinic receptor; [1]): ++ (activity was measured to be between 0.1 μM and 4.0 μM) | Emax (M1 muscarinic receptor; compound nos. 1-454): 65 to 85% | M1 Activity (M1 muscarinic receptor; [2]): +++ (activity was measured to be less than or equal to 0.7 μM)

CN(C)C(=O)N1CC2(CCN(C3CCN(c4ncccn4)CC3)CC2)c2cc(F)ccc21 [compound 445]
M4 Activity (M4 muscarinic receptor; compound nos. 1-454): +++ (activity was measured to be less than or equal to 0.1 μM) | Emax (M4 muscarinic receptor; compound nos. 1-454): 55 to 70% | M1 Activity (M1 muscarinic receptor; compound nos. 1-454): ++ (activity was measured to be between 0.7 μM and 3.0 μM) | Emax (M1 muscarinic receptor; compound nos. 1-454): 65 to 85%

CCOC(=O)N1CCC(N2CCC3(CC2)CN(C(=O)C2CCC2)c2ccc(F)cc23)CC1 [compound 254]
Emax (M4 muscarinic receptor; compound nos. 1-454): 55 to 70% | M4 Activity (M4 muscarinic receptor; [1]): + (activity was measured to be greater than or equal to 4.0 μM) | Emax (M1 muscarinic receptor; compound nos. 1-454): 65 to 85% | M1 Activity (M1 muscarinic receptor; [2]): + (activity was measured to be greater than or equal to 3.0 μM)

COC(=O)N1CCC(CN2CCC3(CC2)CN(C(C)=O)c2ccc(F)cc23)CC1 [compound 129]
Emax (M4 muscarinic receptor; compound nos. 1-454): < 55% | M4 Activity (M4 muscarinic receptor; [1]): + (activity was measured to be greater than or equal to 4.0 μM) | Emax (M1 muscarinic receptor; compound nos. 1-454): 65 to 85% | M1 Activity (M1 muscarinic receptor; [2]): +++ (activity was measured to be less than or equal to 0.7 μM)

O=C1CC2(CCN(C[C@H]3C[C@H]4C=C[C@H]3C4)CC2)c2ccccc21 [compound 104]
Emax (M4 muscarinic receptor; compound nos. 1-454): < 55% | M4 Activity (M4 muscarinic receptor; [1]): + (activity was measured to be greater than or equal to 4.0 μM) | Emax (M1 muscarinic receptor; compound nos. 1-454): 65 to 85% | M1 Activity (M1 muscarinic receptor; [2]): +++ (activity was measured to be less than or equal to 0.7 μM)

CCc1nsc(N2CCC(N3CCC4(CC3)C[C@H](N(CC(F)(F)F)C(C)=O)c3ccccc34)CC2)n1 [compound 502]
Emax (M4 muscarinic receptor; compound nos. 455-509): 25 to 100% | M4 Activity (M4 muscarinic receptor; compounds 455-509): ++ (activity was measured to be between 2.0 μM and 5.0 μM) | Emax (M1 muscarinic receptor; compound nos. 455-509): 25 to 100% | M1 Activity (M1 muscarinic receptor; compounds 455-509): ++ (activity was measured to be between 2.0 μM and 5.0 μM)

CC(=O)N1CC2(CCN(C3CCCN(C(=O)OCCF)CC3)CC2)c2cc(F)ccc21 (centres unmarked) [compound 168]
Emax (M4 muscarinic receptor; compound nos. 1-454): > 70% | M4 Activity (M4 muscarinic receptor; [1]): ++ (activity was measured to be between 0.1 μM and 4.0 μM) | M1 Activity (M1 muscarinic receptor; [2]): ++ (activity was measured to be between 0.7 μM and 3.0 μM)

CCOC(=O)N1C2CCC1CC(N1CCC3(CC1)C[C@H](NC(C)=O)c1ccccc13)C2 (some centres unmarked) [compound 359]
Emax (M4 muscarinic receptor; compound nos. 1-454): < 55% | M4 Activity (M4 muscarinic receptor; [1]): ++ (activity was measured to be between 0.1 μM and 4.0 μM) | Emax (M1 muscarinic receptor; compound nos. 1-454): < 65% | M1 Activity (M1 muscarinic receptor; [2]): ++ (activity was measured to be between 0.7 μM and 3.0 μM)

CCOC(=O)N1CCC(N2CCC3(CC2)CN(C(C)=O)c2ccc(-c4ccc(C)cc4)cc23)CC1 [compound 58, ethyl 4-(1-acetyl-5-p-tolylspiro[indoline-3,4′-piperidine]-1′-yl)piperidine-1-carboxylate]
Emax (M4 muscarinic receptor; compound nos. 1-454): 55 to 70% | M4 Activity (M4 muscarinic receptor; [1]): ++ (activity was measured to be between 0.1 μM and 4.0 μM) | Emax (M1 muscarinic receptor; compound nos. 1-454): 65 to 85% | M1 Activity (M1 muscarinic receptor; [2]): +++ (activity was measured to be less than or equal to 0.7 μM)

CCOC(=O)N1CCC(N2CCC3(CC2)CN(CCC(=O)CC)c2ccc(F)cc23)CC1 [compound 229]
Emax (M4 muscarinic receptor; compound nos. 1-454): > 70% | M4 Activity (M4 muscarinic receptor; [1]): +++ (activity was measured to be less than or equal to 0.1 μM) | Emax (M1 muscarinic receptor; compound nos. 1-454): < 65% | M1 Activity (M1 muscarinic receptor; [2]): ++ (activity was measured to be between 0.7 μM and 3.0 μM)
